5 molecules from US20080176952A1, “Management of Ophthalmologic Disorders, Including Macular Degeneration” (priority 2004, published 2008) can be followed below.

Data set [1] deals with 11-cis-retinol biosynthesis (IMH activity) in retinal pigment epithelial membrane system. The data set is described as follows: Effect on 11-cis-retinol biosynthesis (IMH activity) in RPE membranes. It counts as biochemical, bovine. As to the method: A control reaction mixture without any inhibitor was also incubated at room temperature for 15 min. At the end of the min incubation, all-trans-retinol [11-12-^3H2] (0.2 μM) was added to the reaction mixtures (100 mM Tris pH 8.0, […] of RPE protein, 0.2% BSA 100 μM of DPPC, 1 mM of DTT and 0.2 μM all-trans-retinol [11-12-^3H2]) and incubated at room temperature for 30 min. At the end of this 30 minutes of incubation, an aliquot of the reactions were quenched to verify the equal addition of all-trans-retinol [11,12-^3H2] and the effect of these inhibitors on LRAT. After this the control reaction mixture was incubated with atRA (60 & 6 μM), 13cRA (60 & 6 μM) or 4-HPR (60 & 6 μM) for 15 min. Now all the reaction mixtures were incubated with 30 μM of apo-rCRALBP (100 mM Tris pH 8.0, 7.7 μg of RPE protein, 0.2% BSA 100 μM of DPPC, 1 mM of DTT 30 μM apo-rCRALBP and 0.2 μM all-trans-retinol [11-12-^3H2]) at 37° C. for 30 minutes. At the end of this incubation period the 200 μL reaction mixture was quenched by the addition of 750 μL ice cold methanol after which 100 μL of 1M sodium chloride solution was added, and 500 μl hexane (containing butylated hydroxy toluene at 1 mg/mL) was added to effect extraction of the retinoids. The retinoids were analyzed as previously described (27). The amount of 11-cis-retinol formed was used as a measurement of IMH activity. All experiments were performed in triplicate and the average values of these measurements were used for analysis.
A control reaction mixture without any inhibitor was also incubated at room temperature for 15 min. At the end of the min incubation, all-trans-retinol [11-12-^3H2] (0.2 μM) was added to the reaction mixtures (100 mM Tris pH 8.0, 76.7 μg of RPE protein, 0.2% BSA 100 μM of DPPC, 1 mM of DTT and 0.2 μM all-trans-retinol [11-12-^3H2]) and incubated at room temperature for 30 min. […] The retinoids were analyzed as previously described (27). […]

For data set [2], the target named is T1, sRPE65 (Bos taurus, UniProt Q28175).
T1 construct: Frozen bovine eyecups devoid of retinas were purchased from W. L. Lawson Co; tissue W. L. Lawson Co; host or cells: bovine eyecups (retinal pigment epithelium)
T1 sequence (Q28175 whole entry): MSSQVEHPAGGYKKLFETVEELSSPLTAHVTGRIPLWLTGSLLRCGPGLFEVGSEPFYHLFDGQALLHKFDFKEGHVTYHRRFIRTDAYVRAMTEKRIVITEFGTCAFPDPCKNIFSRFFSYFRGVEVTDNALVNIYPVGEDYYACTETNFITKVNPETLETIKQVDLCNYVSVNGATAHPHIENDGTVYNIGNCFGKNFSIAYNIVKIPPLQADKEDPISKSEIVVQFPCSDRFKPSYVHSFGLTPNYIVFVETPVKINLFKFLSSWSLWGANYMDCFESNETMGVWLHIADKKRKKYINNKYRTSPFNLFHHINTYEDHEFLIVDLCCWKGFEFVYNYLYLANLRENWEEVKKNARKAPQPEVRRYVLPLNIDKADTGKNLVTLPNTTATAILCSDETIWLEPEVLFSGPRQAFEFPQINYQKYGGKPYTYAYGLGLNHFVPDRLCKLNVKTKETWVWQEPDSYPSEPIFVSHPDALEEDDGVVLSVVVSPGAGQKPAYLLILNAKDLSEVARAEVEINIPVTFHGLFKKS
The data set is described as follows: Fluorescence binding of retinoids to purified sRPE65. Details: species or system bovine. As to conditions: 0.37 μM sRPE65, phosphate buffered saline pH 7.4, 1% CHAPS. How it is done: (§1) Fluorescence binding assays: RPE65 in PBS, 1% CHAPS, pH 7.4 was used in the fluorometric titration studies. Protein concentrations were measured by a modified Lowry method (Lowry et al., 1951). All titrations were performed at 25° C. The samples in PBS buffer were excited at 280 nm and the fluorescence was scanned from 300 to 500 nm. Fluorescence measurements, using 450 μL quartz cuvettes with a 0.5 cm path length, were made at 25° C. on a Jobin Yvon Instruments, Fluoromax 2 employing the right-angle detection method.
The fluorescence of the protein solution was measured after equilibrating it at 25° C. for 10 min. […] In each titration, to a 250 μL solution of the protein an equal amount of retinoid, typically 0.2 μL. was added and thoroughly mixed before allowing it to equilibrate for 10 min prior to recording the fluorescence intensity. […] The binding constant (KD) was calculated from the fluorescence intensity by using the following equation (Gollapalli et al., 2003).
As mentioned above, membrane associated RPE65 (mRPE65) stereospecifically binds all-trans-retinyl palmitate. In this example, the binding of retinoids to sRPE65 is measured by the fluorescence methodology already described (Gollapalli, D. R., Maiti, P., Rando, R. R. (2003) RPE65 operates in the vertebrate visual cycle by stereospecifically binding all-trans-retinyl esters. Biochemistry 42, 11824-30). […]

Data set [3] deals with T2, RPE65 (Bos taurus, UniProt Q28175).
T2 construct: Frozen bovine eyecups devoid of retinas were purchased from W. L. Lawson Co; tissue W. L. Lawson Co; host or cells: bovine eyecups (retinal pigment epithelium)
T2 sequence (Q28175 whole entry): as above
The data set is described as follows: Fluorescence binding assay of retinoids and analogs to purified RPE65. Details: species or system bovine. How it is done: Purification of mRPE65, sRPE65 and rHRPE65: Purification was performed as described before (Ma et al., 2001). The purities of these proteins were verified by silver staining or Coomassie staining and Western blot (1:4000 primary antibody-1 h at room temperature and 1:4000 secondary antibody-0.5 h at room temperature).
as §1
(§2) The fluorescence of the protein solution was measured after equilibrating it at 25° C. for 10 min. The sample was then titrated with a solution of retinoid dissolved in dimethyl sulfoxide. In each titration, to a 250 μL solution of the protein an equal amount of retinoid, typically 0.2 μL. was added and thoroughly mixed before allowing it to equilibrate for 10 min prior to recording the fluorescence intensity. […] The binding constant (KD) was calculated from the fluorescence intensity by using the following equation (Gollapalli et al., 2003).
where P0=Total protein concentration,
n=number of independent binding sites, R0=Total retixioid concentration at each addition, KD=dissociation constant, Fmax=Fluorescence intensity at saturation, and F0=Initial fluorescence intensity.

Data set [4] has as its target mouse RPE65. The data set is described as follows: Constants of affinity (Kds) for mouse RPE65. It counts as binding. The following applies: read-out: Kd (constant of affinity) for mouse RPE65. How it is done:
as §1, §2
The constants of affinity (Kds) of several compounds for mouse RPE65 were determined. […] Thus, the potency of binding is a function of the ester chain length, i.e., the longer the chain length, the stronger the affinity for RPE65 is and the stronger the antagonist is.

The target of data set [5] is T3, tLRAT (Homo sapiens, UniProt O95237).
T3 construct: This form of LRAT has the two N and C-terminal transmembrane domains of LRAT truncated; made in house
T3 sequence (O95237 31-196 limits assumed): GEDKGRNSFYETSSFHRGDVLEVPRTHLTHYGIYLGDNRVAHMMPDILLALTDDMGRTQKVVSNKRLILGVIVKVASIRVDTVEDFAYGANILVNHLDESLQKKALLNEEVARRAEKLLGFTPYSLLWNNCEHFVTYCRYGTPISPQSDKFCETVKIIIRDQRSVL
The data set is described as follows: mRPE65 concentration-dependent esterification of vitamin A by tLRAT. It counts as biochemical. How it is done: mRPE65 concentration-dependent esterification of vitamin A: The effect of mRPE65 concentration on the rates of all-trans-retinyl palmitate formation was determined by monitoring the tLRAT catalyzed formation of all-trans-retinyl palmitate from added [11,12-^3H2]-all-trans-retinol and mRPE65. It should be noted that all-trans-retinyl palmitate formed from mRPE65 and vitamin A was identified both by its mass spectroscopic and chromatographic properties. The reaction mixture (volume 0.1 mL) contains 100 mM Tris (pH 8.4), 5 μM of tLRAT 0.3% CHAPS, 1 mM dithiothreitol and 5 μM of all-trans-retinol [11,12-^3H2] and mRPE65 (0, 0.008, 0.02, 0.028, 0.04, 0.052, 0.06 and 0.08 μM) incubated for 10 min at room temperature. After 10 min the reaction was quenched with 500 μL methanol, 100 μL of water and 500 μL of hexane. The amount of all-trans-retinyl palmitate [11,12-^3H2] formed as determined by normal phase-HPLC and was used as a measure of activity. The kinetic parameters KM (Kapp) and N were calculated as described before (Segal 1993). Each experiment was done in triplicate, and the data points used are an average of these three points. […]
In these experiments, pure mRPE65 and vitamin A are incubated with LRAT and the resultant all-trans-retinyl palmitate is isolated by HPLC. […] Under the same conditions, no observable turnover of DPPC is measured (FIG. 11B).

[6] abbreviates: purified RPE65, PBS, 1% CHAPS, pH 7.4, 25° C., N=4, read-out: average KD for binding to RPE65.

Like-named read-outs stand apart in the source and are kept apart here.

In the case of `CC1=C(/C=C/C(C)=C/C=C/C(C)=C\C(=O)O)C(C)(C)CCC1` [13-cis-retinoic acid], the “inhibition of 11-cis-retinol formation” value in data set [1] (membranes pre-incubated with vitamin A before inhibitor, 60 μM, data not shown) is “not susceptible to inhibition”.
Molecule `CC1=C(/C=C/C(C)=C/C=C/C(C)=C/CO)C(C)(C)CCC1` [all-trans-retinol, reference compound] showed a dissociation constant (Kd) in data set [2] of around 65 nM.
For `CCCCCCCCCCCCCCCC(=O)OC/C=C(C)/C=C/C=C(C)/C=C/C1=C(C)CCCC1(C)C` [retinyl palmitate], the Kd is 47 nM in data set [3] (antagonist of RPE65, read-out: KD); 47 nM in data set [3] (setting [6]); around 1200 nM in data set [2]; 47 nM in data set [4].
With `CC1=C(/C=C/C(C)=C/C=C/C(C)=C/C(=O)Nc2ccc(O)cc2)C(C)(C)CCC1` [N-(4-hydroxyphenyl)retinamide, reference compound], in data set [3] (setting [6]), the Kd is around 3550 nM. For the same molecule, the “inhibition of 11-cis-retinol formation” value in data set [1] (membranes pre-incubated with the inhibitor before vitamin A (FIG. 8)) was “substantially weaker”.

B1: mRPE65: membrane-associated, palmitoylated form of RPE65; acts as palmitoyl donor for LRAT (protein, UniProt Q16518 2-533, looked up)
Retinoid isomerohydrolase: SIQVEHPAGGYKKLFETVEELSSPLTAHVTGRIPLWLTGSLLRCGPGLFEVGSEPFYHLFDGQALLHKFDFKEGHVTYHRRFIRTDAYVRAMTEKRIVITEFGTCAFPDPCKNIFSRFFSYFRGVEVTDNALVNVYPVGEDYYACTETNFITKINPETLETIKQVDLCNYVSVNGATAHPHIENDGTVYNIGNCFGKNFSIAYNIVKIPPLQADKEDPISKSEIVVQFPCSDRFKPSYVHSFGLTPNYIVFVETPVKINLFKFLSSWSLWGANYMDCFESNETMGVWLHIADKKRKKYLNNKYRTSPFNLFHHINTYEDNGFLIVDLCCWKGFEFVYNYLYLANLRENWEEVKKNARKAPQPEVRRYVLPLNIDKADTGKNLVTLPNTTATAILCSDETIWLEPEVLFSGPRQAFEFPQINYQKYCGKPYTYAYGLGLNHFVPDRLCKLNVKTKETWVWQEPDSYPSEPIFVSHPDALEEDDGVVLSVVVSPGAGQKPAYLLILNAKDLSEVARAEVEINIPVTFHGLFKKS
modifications: palmitoylated membrane-associated form
notes: membrane-associated, palmitoylated form of RPE65; acts as palmitoyl donor for LRAT
For the molecule B1, the Michaelis constant (Km) in data set [5] (5 μM tLRAT, 5 μM all-trans-retinol, sigmoidal kinetics, read-out: KM (Kapp) as palmitoyl donor) is 0.03 µM. In addition, the “N (Hill plot)” value in data set [5] (tLRAT catalyzed palmitoyl transfer to vitamin A) turned out to be 2.54.

For orientation: Kd means a measure of binding affinity in units of concentration. Usually Km stands for the concentration of substrate that gives half-maximal velocity.
